Source: PubChem BioAssay AID390 (SGCOxCompounds, 2006)

Each molecule was assayed against Serine/threonine-protein kinase PAK 5 (Homo sapiens) (UniProt Q9P286) (assay: ligand-induced stabilization of human PAK5 kinase – biophysical, DSF, SYPRO orange, recombinant protein (AID 390)). Settings: recombinant PAK5, DSF thermal shift, at 10 µM, stronger effect = higher value.
Sequence of Serine/threonine-protein kinase PAK 5 (Homo sapiens) (Q9P286 whole entry, looked up): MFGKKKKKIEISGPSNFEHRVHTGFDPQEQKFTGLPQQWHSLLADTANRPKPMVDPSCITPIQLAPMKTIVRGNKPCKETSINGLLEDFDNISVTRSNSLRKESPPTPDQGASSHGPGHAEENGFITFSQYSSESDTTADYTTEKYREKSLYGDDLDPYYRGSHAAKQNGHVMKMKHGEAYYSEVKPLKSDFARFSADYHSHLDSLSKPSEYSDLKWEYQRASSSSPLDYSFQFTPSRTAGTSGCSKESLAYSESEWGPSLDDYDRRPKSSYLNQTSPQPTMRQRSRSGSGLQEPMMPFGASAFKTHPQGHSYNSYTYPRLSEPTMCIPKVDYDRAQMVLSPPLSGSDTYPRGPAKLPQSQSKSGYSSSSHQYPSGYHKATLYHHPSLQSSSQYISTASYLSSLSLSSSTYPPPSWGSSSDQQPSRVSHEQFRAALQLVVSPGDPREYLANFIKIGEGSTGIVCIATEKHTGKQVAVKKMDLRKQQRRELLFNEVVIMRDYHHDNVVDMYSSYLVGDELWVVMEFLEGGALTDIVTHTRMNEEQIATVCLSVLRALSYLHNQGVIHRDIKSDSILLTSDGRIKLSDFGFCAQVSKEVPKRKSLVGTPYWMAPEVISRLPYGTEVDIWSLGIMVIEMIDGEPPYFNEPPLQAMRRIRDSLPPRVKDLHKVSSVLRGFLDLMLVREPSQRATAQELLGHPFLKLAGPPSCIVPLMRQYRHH

Row | Structure (SMILES) | Tm shift [Celsius]
1 | O=C1Cc2c([nH]c3ccc(N(O)O)cc23)-c2ccccc2N1 | 3.9
2 | Nc1nc(Nc2ccc(S(N)(=O)=O)cc2)nn1C(=S)Nc1c(F)cccc1F | 5.57
3 | NS(=O)(=O)c1ccc(Nc2nc(OCC3CCCCC3)c3[nH]cnc3n2)cc1 | 3.3
4 | NCCNc1ncc(C(N)=O)c(Nc2cccc(C(F)(F)F)c2)n1 | 5.9
5 | Cc1cc(Nc2nc(-c3ccccc3)nc3ccccc23)n[nH]1 | 4.73
6 | CCN(CC)CCNC(=O)c1c(C)[nH]c(/C=C2\C(=O)Nc3ccc(Cl)cc32)c1C | 4.47
7 | NC(=O)c1ccc(-c2nc(-c3ccc4c(c3)OCCO4)c(-c3ccccn3)[nH]2)cc1 | 4.1
8 | OCC(O)CCO/N=C1/C(c2c(O)[nH]c3ccccc23)=Nc2ccccc21 (stereo not given) | 3.37
9 | CC(=O)n1c(C2=c3ccccc3=NC2=O)c(O)[nH]c1=S | 3.1
10 | O=Nc1c(-c2c(O)[nH]c3ccccc23)[nH]c2ccccc12 | 4.2
11 | CC(C)c1nn(-c2c(Cl)cccc2Cl)c2nc(Cc3ccc(OCCO)cc3)[nH]c(=O)c12 | 3.1
12 | CCn1cnc2c(Nc3cccc(Cl)c3)nc(N[C@@H]3CCCC[C@@H]3N)nc21 | 6.75
13 | O=Nc1c(-c2c(O)[nH]c3cc(Br)ccc23)[nH]c2ccccc12 | 4.6
14 | CC(C)C(CO)Nc1nc(Nc2cccc(Cl)c2)c2ncn(C(C)C)c2n1 (stereo not given) | 4.5
15 | N#CCCc1ccc2c(c1)-c1[nH]c3ccc(-n4oo4)cc3c1CC(=O)N2 | 4.05
16 | Cn1cc(/C=C2\C(=O)Nc3ccc(S(N)(=O)=O)cc32)c2ccccc21 | 4.3
17 | O=C1NCc2c1c1c3ccccc3[nH]c1c1[nH]c3ccccc3c21 | 4.4
18 | O=C1NC(=O)c2c1c1c3ccccc3n3c1c1c2c2ccccc2n1[C@@H]1CCC3O1 | 3.69
19 | CC(O)(O)C1(O)C[C@@H]2O[C@@]1(C)n1c3ccccc3c3c4c(c5c6ccccc6n2c5c31)C(=O)NC4 (stereo not given in full) | 5.05
20 | O=C1Cc2c([nH]c3ccc(Br)cc23)-c2ccccc2N1 | 3.5
